From patent publication EP0450097B1, “BENZOHETEROCYCLIC COMPOUNDS” (OTSUKA PHARMACEUTICAL CO., LTD., priority 1989, dated 1991) come the findings set out here.

In the experiment the target is T1, V₂ receptor (Rattus norvegicus, UniProt Q00788).
T1 construct: Using rat kidney plasma membrane preparations; from tissue; host or cells: rat kidney plasma membranes
T1 sequence (Q00788 whole entry): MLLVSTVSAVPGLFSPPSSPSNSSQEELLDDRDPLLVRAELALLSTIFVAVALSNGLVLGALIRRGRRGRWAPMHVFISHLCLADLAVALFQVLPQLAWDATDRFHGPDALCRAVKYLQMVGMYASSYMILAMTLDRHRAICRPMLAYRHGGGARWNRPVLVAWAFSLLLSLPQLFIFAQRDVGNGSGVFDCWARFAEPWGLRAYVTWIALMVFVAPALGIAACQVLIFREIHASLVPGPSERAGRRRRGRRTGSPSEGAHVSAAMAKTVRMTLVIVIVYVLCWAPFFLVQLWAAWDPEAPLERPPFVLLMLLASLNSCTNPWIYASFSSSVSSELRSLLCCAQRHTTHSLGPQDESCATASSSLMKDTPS
As to the kind of experiment: V₂ receptor binding assay ([³H]-Arg-vasopressin, rat kidney plasma membrane preparations). Particulars: 4°C for 3 hours. The procedure:
Using rat kidney plasma membrane preparations prepared according to O. Hechter's method [cf: J. Bio. […] After incubation, the mixture is filtered using the glass filter (GF/F) so as to separate the membrane preparation combined with vasopressin and then washed twice with the buffer (5 ml). This glass filter is taken out and mixed with liquid scintillation cocktail. The amount of [³H]-vasopressin combined with the membrane is measured by liquid scintillation counter and the rate of the inhibitory effect of the test compound is estimated according to the following equation. Rate of the inhibitory effect (%) = 100 -(C1 - B1)/(C0 - B1)X 100 [formula] C¹: The amount of [³H]-vasopressin combined with the membrane in the presence of the test compound (in prescribed amount). C⁰: The amount of [³H)-vasopressin combined with the membrane in the absence of the test compound. B¹: The amount of [³H]-vasopressin combined with the membrane in the presence of the excess amount of vasopressin (10⁻⁶ M).
The results are expressed as IC₅₀ values, which is the concentration of the test compound required to achieve the inhibitory effect in the rate of 50 %.
Compound `Cc1ccccc1C(=O)Nc1ccc(C(=O)N2CCCC(N(C)C)c3ccccc32)c(C)c1` (centres unmarked) [compound 218] had an IC50 of 22 nM.
With `CC(=O)NC1Cc2ccccc2N(C(=O)c2ccc(NC(=O)c3cc(Cl)cc(Cl)c3)cc2)C1` (centres unmarked) [compound 99] the figure was 1600 nM; with `Cc1ccccc1C(=O)Nc1ccc(C(=O)N2CCN(C)c3ccccc32)cc1` [compound 51], 400 nM; with `O=C(CC1CCCCC1)Nc1ccc(C(=O)N2CCCc3ccccc32)cc1` [compound 12], 1970 nM.
With `Cc1ccccc1C(=O)Nc1ccc(C(=O)N2CCCC(N(C)S(C)(=O)=O)c3ccccc32)cc1` (centres unmarked) [compound 258] the figure was 200 nM.
With `Cc1cccc(C(=O)Nc2ccc(C(=O)N3CCCN(C)c4ccccc43)cc2)c1C` [compound 91], the IC50 stood at 5 nM.
Compound `CNC1CCCN(C(=O)c2ccc(NC(=O)c3ccccc3C)cc2Cl)c2ccccc21` (centres unmarked) [compound 182] came in with a 50% inhibitory concentration (IC50) of 5 nM.
On to `O=C(Nc1ccc(C(=O)N2CCCc3ccccc32)cc1)C1CCCCCC1` [compound 15], for which the half-inhibitory concentration (IC50) stood at 130 nM. Against the preceding compound, the IC50 is about 26-fold higher.
The figure for `Cc1ccccc1C(=O)Nc1ccc(C(=O)N2CCCc3ccccc32)cc1` [compound 7] is 200 nM.
In turn, `CN(C)C1CCCN(C(=O)c2ccc(NC(=O)c3cccc(N)c3)cc2)c2ccccc21` (centres unmarked) [compound 292] displayed a 50% inhibitory concentration (IC50) of 180 nM.
In the case of `Cc1ccccc1C(=O)Nc1ccc(C(=O)N2CCCC(N(C)C)c3ccccc32)cc1OCc1ccccc1` (centres unmarked) [compound 170], the IC50 worked out at 250 nM.
The compound `Cc1ccccc1C(=O)Nc1ccc(C(=O)N2CCCC(N(C)CC(=O)N(C)C)c3ccccc32)cc1` (centres unmarked) [compound 295] registered a half-inhibitory concentration (IC50) of 26 nM.
The figure for `Cc1ccccc1C(=O)Nc1ccc(C(=O)N2CCCC(NC3CCCC3)c3ccccc32)c(Cl)c1` (centres unmarked) [compound 263] is 53 nM; for `O=C(Nc1ccc(C(=O)N2CCCC(N3CCCCC3)c3ccccc32)cc1)c1ccccc1Cl` (centres unmarked) [compound 202] it is 140 nM.
The figure for `NC1CCCN(C(=O)c2ccc(NC(=O)c3ccccc3Cl)cc2)c2ccccc21` (centres unmarked) [compound 253] is 52 nM; for `CN1CCN(C(=O)c2ccc(NC(=O)c3cc(Cl)cc(Cl)c3)cc2)c2ccccc21` [compound 53] it is 1600 nM.
Take `O=C(Nc1ccc(C(=O)N2CCCCCc3ccccc32)cc1)c1cc(Cl)cc(Cl)c1` [compound 39]: the IC50 stood at 71 nM.
With `Cc1cccc(C(=O)Nc2ccc(C(=O)N3CC(C)Cc4ccccc43)cc2)c1C` (centres unmarked) [compound 48] the figure was 21 nM.
With `CC(=O)N1CCN(C2CCCN(C(=O)c3ccc(NC(=O)c4ccccc4Cl)cc3)c3ccccc32)CC1` (centres unmarked) [compound 205] the figure was 74 nM; with `CC1CCc2ccccc2N1C(=O)c1ccc(NC(=O)c2cc(Cl)cc(Cl)c2)cc1` (centres unmarked) [compound 54], 110 nM.
As for `CNC1CCCN(C(=O)c2ccc(NC(=O)c3ccccc3C)cc2)c2c(Cl)cccc21` (centres unmarked) [compound 318], the 50% inhibitory concentration (IC50) came out at 60 nM.
In turn, `CC(=O)N(C)C1CCCN(C(=O)c2ccc(NC(=O)c3cc(Cl)cc(Cl)c3)cc2)c2ccccc21` (centres unmarked) [compound 142] had a 50% inhibitory concentration (IC50) of 8 nM.
The figure for `O=C(CN1CCCCC1)Nc1ccc(C(=O)N2CCCCc3ccccc32)cc1` [compound 103] is 540 nM; for `Cc1ccccc1C(=O)Nc1ccc(C(=O)N2CCCC(O)c3ccccc32)c(Cl)c1` (centres unmarked) [compound 210] it is 4 nM.
The figure for `Cc1ccccc1C(=O)Nc1ccc(C(=O)N2CCCC(N(C)CC#N)c3ccccc32)cc1` (centres unmarked) [compound 265] is 25 nM.
Consider `NC1Cc2ccccc2N(C(=O)c2ccc(NC(=O)c3cc(Cl)cc(Cl)c3)cc2)C1` (centres unmarked) [compound 98], for which the half-inhibitory concentration (IC50) is 450 nM.
The figure for `COc1cc(NC(=O)c2ccccc2Cl)ccc1C(=O)N1CCCC(N(C)C)c2ccccc21` (centres unmarked) [compound 177] is 150 nM; for `CN1CC(=O)OC2CCN(C(=O)c3ccc(NC(=O)c4ccccc4Cl)cc3)c3ccccc3C21` (centres unmarked) [compound 251] it is 94 nM; for `Cc1ccccc1C(=O)Nc1ccc(C(=O)N2CCCC(O)(CO)c3ccccc32)c(Cl)c1` (centres unmarked) [compound 225] it is 30 nM.
With `Cc1ccccc1C(=O)Nc1ccc(C(=O)N2CCCC(NN)c3ccccc32)cc1` (centres unmarked) [compound 282] the figure was 380 nM; with `Cc1ccc2c(c1)CCCN2C(=O)c1ccc(NC(=O)c2cc(Cl)cc(Cl)c2)cc1` [compound 94], 95 nM.
With `CN(C)C1CCCN(C(=O)c2ccc(NC(=O)c3ccccc3Cl)cc2)c2ccccc21` (centres unmarked) [compound 180] the figure was 34 nM.
Turning to `O=C(Nc1ccc(C(=O)N2CCCc3ccccc32)cc1)c1cc(Cl)cc(Cl)c1` [compound 10], the concentration for half-maximal inhibition (IC50) is 82 nM.
With `CCCN1CCN(C(=O)c2ccc(NC(=O)c3cccc(C)c3C)cc2)c2ccccc2C1` [compound 86] the figure was 580 nM; with `O=C(Nc1ccc(C(=O)N2CCCc3ccccc32)cc1)c1cccc(Cl)c1` [compound 2], 200 nM.
On to `COC1(OC)CCN(C(=O)c2ccc(NC(=O)c3ccccc3C)cc2)c2ccccc2C1` [compound 233], for which the 50% inhibitory concentration (IC50) was found to be 150 nM.
`O=C(NC1CCCCC1)c1ccc(C(=O)N2CCCc3ccccc32)cc1` [compound 25] returned an IC50 of 1670 nM.
`CCN(C)C1CCCN(C(=O)c2ccc(NC(=O)c3ccccc3C)cc2)c2ccccc21` (centres unmarked) [compound 228] yielded an IC50 of 29 nM.
In turn, `COc1cccc(C(=O)Nc2ccc(C(=O)N3CC(C)Cc4ccccc43)cc2)c1` (centres unmarked) [compound 47] came in with a concentration for half-maximal inhibition (IC50) of 200 nM.
With `CN1CCN(C(=O)c2ccc(NC(=O)C3CCCCC3)cc2)c2ccccc21` [compound 50] the figure was 1300 nM.
`Cc1ccccc1C(=O)Nc1ccc(C(=O)N2CCCC(O)(CO)c3ccccc32)cc1` (centres unmarked) [compound 237] returned an IC50 of 41 nM.
The figure for `COc1ccc(NC(=O)c2ccc(C(=O)N3CCCc4ccccc43)cc2)cc1` [compound 21] is 1000 nM.
With `CNC1CCCN(C(=O)c2ccc(NC(=O)c3ccccc3C(F)(F)F)cc2Cl)c2ccccc21` (centres unmarked) [compound 198] the figure was 40 nM; with `CC1Cc2ccccc2N(C(=O)c2ccc(NC(=O)c3cc(Cl)cc(Cl)c3)cc2)C1` (centres unmarked) [compound 49], 63 nM.
Take `Cc1ccccc1C(=O)Nc1ccc(C(=O)N2CCCC(C)(O)c3ccccc32)cc1` (centres unmarked) [compound 261]: the half-inhibitory concentration (IC50) worked out at 11 nM.
For `O=C(Nc1ccc(C(=O)N2CCCC(N3CCCC3)c3ccccc32)cc1)c1ccccc1Cl` (centres unmarked) [compound 204], the IC50 worked out at 110 nM.
Take `CCOC(=O)NC1CCCN(C(=O)c2ccc(NC(=O)c3ccccc3C)cc2)c2ccccc21` (centres unmarked) [compound 260]: the IC50 is 130 nM.
For `Cc1cccc(OCC(=O)Nc2ccc(C(=O)N3CCCCc4ccccc43)cc2)c1` [compound 107], the concentration for half-maximal inhibition (IC50) was 32 nM. This IC50 lies about 4.1-fold lower than the previous one.
With `CN(C)C1CCCN(C(=O)c2ccc(NC(=O)c3ccccc3Cl)cc2Cl)c2ccccc21` (centres unmarked) [compound 184] the figure was 23 nM; with `O=C(Cc1ccccc1)Nc1ccc(C(=O)N2CCCc3ccccc32)cc1` [compound 13], 1020 nM; with `CC(C)(COc1ccccc1)NCC(=O)Nc1ccc(C(=O)N2CCCCc3ccccc32)cc1` [compound 106], 440 nM.
With `O=C(Nc1ccc(C(=O)N2CCCC(N3CCN(Cc4ccccc4)CC3)c3ccccc32)cc1)c1ccccc1Cl` (centres unmarked) [compound 203] the figure was 70 nM.
The figure for `O=C(Nc1ccc(C(=O)N2CCCC(NC3CC3)c3ccccc32)c(Cl)c1)c1ccccc1Cl` (centres unmarked) [compound 200] is 24 nM.
For `CC(=O)ON=C1CCCN(C(=O)c2ccc(NC(=O)c3ccccc3Cl)cc2)c2ccccc21` [compound 234], the IC50 turned out to be 140 nM.
In turn, `Cc1cc(C(=O)N2CCCC(N(C)C)c3ccccc32)ccc1NC(=O)c1ccc(Cl)cc1Cl` (centres unmarked) [compound 227] yielded an IC50 of 29 nM.
Compound `CNC(=O)NC1CCCN(C(=O)c2ccc(NC(=O)c3ccccc3C)cc2)c2ccccc21` (centres unmarked) [compound 283] gave an IC50 of 96 nM.
With `O=C(Nc1ccc(C(=O)N2CCCCCc3ccccc32)cc1)c1ccccc1` [compound 35] the figure was 200 nM.
The figure for `N#Cc1cccc(C(=O)Nc2ccc(C(=O)N3CCCCc4ccccc43)cc2)c1` [compound 31] is 98 nM; for `CNC1c2ccccc2N(C(=O)c2ccc(NC(=O)c3ccccc3Cl)cc2Cl)CCC1O` (centres unmarked) [compound 224] it is 380 nM; for `Cc1cccc(C(=O)Nc2ccc(C(=O)N3CCN(C)Cc4ccccc43)cc2)c1C` [compound 81] it is 150 nM.
With `CNC1CCN(C(=O)c2ccc(NC(=O)c3cc(Cl)cc(Cl)c3)cc2)c2ccccc21` (centres unmarked) [compound 97] the figure was 24 nM; with `CN(C)C1CCCN(C(=O)c2ccc(NC(=O)COc3ccccc3)cc2)c2ccccc21` (centres unmarked) [compound 319], 58 nM.
Compound `CN1CCN(C(=O)c2ccc(NC(=O)C3CCCCC3)cc2)c2ccccc2C1` [compound 79] returned an IC50 of 530 nM.
With `CN(C)C1CCCN(C(=O)c2ccc(NC(=O)c3ccccc3F)cc2)c2ccccc21` (centres unmarked) [compound 212] the figure was 35 nM.
The compound `CCCNC1CCCN(C(=O)c2ccc(NC(=O)c3ccc(Cl)cc3Cl)cc2)c2ccccc21` (centres unmarked) [compound 169] registered a 50% inhibitory concentration (IC50) of 71 nM.
The compound `CC1Cc2ccccc2N(C(=O)c2ccc(NC(=O)C3CCCCC3)cc2)C1` (centres unmarked) [compound 44] registered an IC50 of 50 nM.
In turn, `Cc1ccccc1NC(=O)c1ccc(C(=O)N2CCCc3ccccc32)cc1` [compound 22] gave a 50% inhibitory concentration (IC50) of 330 nM. Compared with the last compound, the IC50 is about 6.6-fold higher.
`Cc1ccccc1C(=O)Nc1ccc(C(=O)N2CCCC(N(C)CC(O)CO)c3ccccc32)cc1` (centres unmarked) [compound 264] yielded an IC50 of 30 nM.
